From PubChem BioAssay (NCI)
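In this assay, cells in 96-well plates receive the compound at five concentrations for 48 hours. Endpoints are linearly interpolated between the surrounding concentrations. Here, GI50 denotes the concentration required for 50% inhibition of growth. The concentration for full growth arrest is given as TGI.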

Legend:
Assay in all cases: DTP human tumour cell line panel, 48 h
A549 NSCLC = system: A549 NSCLC
CCRF-CEM leukemia = system: CCRF-CEM leukemia
HCT-116 colon = system: HCT-116 colon
HOP-92 NSCLC = system: HOP-92 NSCLC
RPMI-8226 leukemia = system: RPMI-8226 leukemia
SF-539 CNS = system: SF-539 CNS
SR leukemia = system: SR leukemia
UO-31 renal = system: UO-31 renal
BT-549 breast = system: BT-549 breast
MCF7 breast = system: MCF7 breast

| Structure (SMILES) | TGI (A549 NSCLC) [µM] | TGI (CCRF-CEM leukemia) [µM] | TGI (HCT-116 colon) [µM] | TGI (HOP-92 NSCLC) [µM] | TGI (RPMI-8226 leukemia) [µM] | TGI (SF-539 CNS) [µM] | TGI (SR leukemia) [µM] | TGI (UO-31 renal) [µM] | TGI (BT-549 breast) [µM] | TGI (MCF7 breast) [µM] | GI50 (A549 NSCLC) [µM] | GI50 (BT-549 breast) [µM] | GI50 (CCRF-CEM leukemia) [µM] | GI50 (HCT-116 colon) [µM] | GI50 (MCF7 breast) [µM] | GI50 (RPMI-8226 leukemia) [µM] | GI50 (SF-539 CNS) [µM] | GI50 (SR leukemia) [µM] | GI50 (UO-31 renal) [µM] | GI50 (HOP-92 NSCLC) [µM] |
| --- | --- | --- | --- | --- | --- | --- | --- | --- | --- | --- | --- | --- | --- | --- | --- | --- | --- | --- | --- | --- |
| CC1=NOC(=O)/C1=C/c1cccc2ccccc12 | > 100 | > 100 | > 100 | > 100 | > 100 | > 100 | > 100 | > 100 |  |  |  |  |  |  |  |  |  |  |  |  |
| CCN(CC)CCOc1ccccc1/C=C/c1noc2ccccc12 |  | 81.6 | 19.2 |  |  | 31.8 | 68 | 19.3 | 29.9 | 27.9 |  |  |  |  |  |  |  |  |  |  |
| O=C1CCC2CC(C(=O)c3ccccc3)CCC2CN1 (configuration not stated) (tested in a mixture with another compound) | > 100 | > 100 | > 100 |  | > 100 | > 100 | > 100 | > 100 |  |  |  |  |  |  |  |  |  |  |  |  |
| Cc1cccc2c1N(C(=O)/C=C\C(=O)O)C(c1c(C)[nH]c3ccccc13)C2 (configuration not stated) | > 100 | 78.2 | 54.3 | 82.4 | > 100 |  | > 100 | > 100 |  |  |  |  |  |  |  |  |  |  |  |  |
| Cc1cc2c(cc1C)[n+](=O)c(C(=O)C/C(=N/OCCCc1ccccc1)C(=O)Nc1cc(Cl)ccc1Cl)c(C)n2[O-] | > 100 | > 100 | > 100 |  |  | > 100 |  |  |  |  |  |  |  |  |  |  |  |  |  |  |
| CNC(=O)OCc1c2ccncc2c(C)c2c1[nH]c1ccccc12 | 2.58 |  | 12.7 | 16.5 |  | 0.784 |  | 0.966 | 1.63 | 1.24 |  |  |  |  |  |  |  |  |  |  |
| COC(=O)C(C(=O)C(=O)Nc1nc(=S)[nH][nH]1)c1csc(-n2nc(-c3ccccc3)cc2-c2ccccc2)n1 (configuration not stated) | > 100 | > 100 | > 100 | > 100 | > 100 |  | > 100 | > 100 |  |  |  |  |  |  |  |  |  |  |  |  |
| CCCCCCCCN(CCCCCCCC)CCCCCCNc1cc(OC)cc2cccnc12 | 34.8 | > 100 | 6.49 |  | 75.4 | 11.5 | 59.1 | 24.4 | 28 | 12.4 | 16.3 | 14.7 | 11.4 | 2.37 | 3.33 | 7.75 | 3.18 | 6.7 | 10.9 |  |
| O=C1c2nsnc2C(=O)c2c(F)c(F)c(F)c(F)c21 | 4.85 | 0.542 | 1.36 |  | 1.63 | 3.14 |  | 2 | 2.83 | 2.19 | 2.15 | 1.49 | 0.117 | 0.426 | 0.398 | 0.374 | 1.7 | 0.0528 | 0.702 |  |
| NC(N)=N/N=C/c1c(-c2cc(Cl)sc2Cl)nc2sccn12 | 11.3 | 1.68 |  |  | 1.61 | 1.72 | 2.68 | > 50 | 2.55 | 2.05 | 2.17 | 1.14 | 0.807 |  | 0.843 | 0.744 | 0.969 | 1.35 | 2 |  |
| CC(=O)Nc1cc(N(CCOS(C)(=O)=O)CCOS(C)(=O)=O)ccc1N=O | > 100 | > 100 | > 100 | > 100 | > 100 | > 100 | > 100 | > 100 |  |  |  |  |  |  |  |  |  |  |  |  |
| O=C(O)C[C@H]1CCCCC12CCOC2=O (some centres not stated) | > 100 | > 100 | > 100 | > 100 | > 100 | > 100 | > 100 | > 100 |  |  |  |  |  |  |  |  |  |  |  |  |
| Cc1ccc(NC(=O)C(=O)C(C#N)c2nc(-c3ccc(-c4ccccc4)cc3)cs2)c(C)c1 (configuration not stated) | > 100 |  | > 100 | > 1 | > 100 | > 100 | > 100 | > 100 |  |  |  |  |  |  |  |  |  |  |  |  |
| O=C(c1ccccc1)[C@H]1Nc2ccc(Cl)cc2C2c3ccccc3CC21 (some centres not stated) | > 100 |  | > 100 |  | > 100 | > 100 | > 100 | > 100 |  |  |  |  |  |  |  |  |  |  |  |  |
| N#Cc1ccccc1NC(=O)C(=O)c1c(O)c2ccccc2oc1=O | > 100 | > 100 | > 100 | > 100 | > 100 | > 100 |  | > 100 | > 100 | > 100 |  |  |  |  |  |  |  |  |  |  |
| CC1COc2c(N3CCN(C)CC3)c(F)cc3c(=O)c(C(=O)O)cn1c23 (configuration not stated) | > 100 | > 100 | > 100 | > 100 | > 100 | > 100 |  | > 100 | > 100 | > 100 | > 100 | > 100 | > 100 | > 100 | > 100 | > 100 | > 100 |  | 47.5 | 0.478 |
| O=C(c1ccccc1)N1C2CCC1C(C(F)(F)F)=C2C(F)(F)F | > 100 | > 100 | > 100 | > 100 | > 100 | > 100 | > 100 | > 100 |  |  |  |  |  |  |  |  |  |  |  |  |
| CNCc1cc(OC)ccc1-c1ccc(OC)c(OC)c1OC | > 100 | > 100 | > 100 | > 100 | > 100 | > 100 | > 100 | > 100 |  |  |  |  |  |  |  |  |  |  |  |  |
| COC(=O)C(CC(C)C)NC(=O)NC12CC3CC(CC(F)(C3)C1)C2 (configuration not stated) | > 100 | > 100 | > 100 | > 100 | > 100 | > 100 |  | > 100 |  |  |  |  |  |  |  |  |  |  |  |  |
| O=C1NC(=O)C(=C/C=C/c2ccccc2)C(=O)N1 | 28 | > 100 | 3.28 |  | 10.2 | 6.3 | > 100 |  | 6.79 | 20.1 | 7.06 | 2.32 | 3.57 | 1.71 | 2.97 | 3.59 | 2.33 | 0.716 |  |  |
| CC(/C(=N\Nc1ccccc1)c1ccc(O)cc1)C1C(=O)Oc2ccccc21 (configuration not stated) | > 100 | > 100 | > 100 |  | > 100 | > 100 | > 100 | > 100 |  |  |  |  |  |  |  |  |  |  |  |  |
| COC(=O)/C(=N\Nc1nc(=S)[nH]n1N)C(C#N)c1ccccc1 (configuration not stated) | > 100 | > 100 | > 100 |  | > 100 |  |  | > 100 |  |  |  |  |  |  |  |  |  |  |  |  |
| COC(=O)C(Cc1cc(OC)c(OC)c(OC)c1)c1ccc(OC)cc1 (configuration not stated) | > 100 | > 100 | > 100 | > 100 | > 100 | > 100 |  | > 100 |  |  |  |  |  |  |  |  |  |  |  |  |
